Test results as given in patent US11028075B2, “Therapeutic compounds and methods of use thereof” (GENENTECH, INC., priority 2018, dated 2021).
Structures can show the parent of a compound that is named as a salt.

Key:
hNav1.7 [1] = biological target: T1, hNav1.7 (Homo sapiens (Human), UniProt Q15858); assay: Electrophysiological assay (EP), voltage clamp on Syncropatch 384PE, CHO cells stably expressing Nav1.7; assay type: cell-based; conditions: holding potential −50 mV, 7.5 min compound incubation, read-out: EP_SP hNav1.7 EVO IC50
Source text: Example 93C. Electrophysiological Assay (EP) (In Vitro Assay)
Patch voltage clamp electrophysiology allows for the direct measurement and quantification of block of voltage-gated sodium channels (NaV's), and allows the determination of the time- and voltage-dependence of block which has been interpreted as differential binding to the resting, open, and inactivated states of the sodium channel (Hille, B., Journal of General Physiology (1977), 69: 497-515).
The following voltage clamp electrophysiology studies are performed on representative compounds using cells heterologously expressing Nav1.7 or Nav1.5 channels. cDNAsfor Nav1.7 (NM_002977) and Nav1.5 (AC137587) are stably expressed in Chinese Hamstr Ovary (CHO) cells and CHL (Chinese Hamster Lung) cells respectively. Sodium currents are measured in the whole-cell configuration using Syncropatch 384PE (Nanlon Technologies, Germany). 1NPC®-384 chips with custom medium resistance and single hole mode are used. Internal solution consists of (in mM): […], 10 […], 20 EGTA, and 10 Hepes (pH adjusted to 7.2); and external solution contains (in mM): 60 NMDG, 80 NaCl, 4 KCl, 1 MgCl2, 2 CaCl2, 2 D-Glucose monohydrate, 10 Hepes (pH adjusted to 7.4 with NaOH).
After system flushing, testing compounds are dissolved in external solution containing 0.1% Pluronic F-127. The chip is moved into the measuring head and the instrument primes the chip with external and internal solutions. 10 μl cells are added to the chip from a cell hotel, and a negative pressure of −50 mBar is applied to form a seal. Following treatment with seal enhancer solution and wash-off with external solution, negative pressure of −250 mbar is applied for 1 second to achieve the whole-cell configuration, followed by three washing steps in external solution. 20 μl of compounds is added to 40 μl in each well (1:3 dilution of compounds), and after mixing, 20 μl is removed so the volume is retained at 40 μl. After approximately 13 minutes recordings, 20 μl/well of 2 uM TTX, or 333 uM Tetracaine (for Nav1.5) is added to achieve full block.
For voltage protocol, an holding potential of −50 mV is applied during the whole experiment. A depolarizing step is applied to −10 mV for 10 ms, followed by a hyperpolarization step to −150 mV for 20 ms to allow channel recovery from inactivation. A second depolarizing step is applied from −150 mV to −10 mV for 10 ms, where currents are measured to derive blocking effects of compounds. Inhibition is determined based on 7.5 min of compound incubation.
Target sequence in this assay (Q15858 other isoform, or with tags, fused parts or gaps): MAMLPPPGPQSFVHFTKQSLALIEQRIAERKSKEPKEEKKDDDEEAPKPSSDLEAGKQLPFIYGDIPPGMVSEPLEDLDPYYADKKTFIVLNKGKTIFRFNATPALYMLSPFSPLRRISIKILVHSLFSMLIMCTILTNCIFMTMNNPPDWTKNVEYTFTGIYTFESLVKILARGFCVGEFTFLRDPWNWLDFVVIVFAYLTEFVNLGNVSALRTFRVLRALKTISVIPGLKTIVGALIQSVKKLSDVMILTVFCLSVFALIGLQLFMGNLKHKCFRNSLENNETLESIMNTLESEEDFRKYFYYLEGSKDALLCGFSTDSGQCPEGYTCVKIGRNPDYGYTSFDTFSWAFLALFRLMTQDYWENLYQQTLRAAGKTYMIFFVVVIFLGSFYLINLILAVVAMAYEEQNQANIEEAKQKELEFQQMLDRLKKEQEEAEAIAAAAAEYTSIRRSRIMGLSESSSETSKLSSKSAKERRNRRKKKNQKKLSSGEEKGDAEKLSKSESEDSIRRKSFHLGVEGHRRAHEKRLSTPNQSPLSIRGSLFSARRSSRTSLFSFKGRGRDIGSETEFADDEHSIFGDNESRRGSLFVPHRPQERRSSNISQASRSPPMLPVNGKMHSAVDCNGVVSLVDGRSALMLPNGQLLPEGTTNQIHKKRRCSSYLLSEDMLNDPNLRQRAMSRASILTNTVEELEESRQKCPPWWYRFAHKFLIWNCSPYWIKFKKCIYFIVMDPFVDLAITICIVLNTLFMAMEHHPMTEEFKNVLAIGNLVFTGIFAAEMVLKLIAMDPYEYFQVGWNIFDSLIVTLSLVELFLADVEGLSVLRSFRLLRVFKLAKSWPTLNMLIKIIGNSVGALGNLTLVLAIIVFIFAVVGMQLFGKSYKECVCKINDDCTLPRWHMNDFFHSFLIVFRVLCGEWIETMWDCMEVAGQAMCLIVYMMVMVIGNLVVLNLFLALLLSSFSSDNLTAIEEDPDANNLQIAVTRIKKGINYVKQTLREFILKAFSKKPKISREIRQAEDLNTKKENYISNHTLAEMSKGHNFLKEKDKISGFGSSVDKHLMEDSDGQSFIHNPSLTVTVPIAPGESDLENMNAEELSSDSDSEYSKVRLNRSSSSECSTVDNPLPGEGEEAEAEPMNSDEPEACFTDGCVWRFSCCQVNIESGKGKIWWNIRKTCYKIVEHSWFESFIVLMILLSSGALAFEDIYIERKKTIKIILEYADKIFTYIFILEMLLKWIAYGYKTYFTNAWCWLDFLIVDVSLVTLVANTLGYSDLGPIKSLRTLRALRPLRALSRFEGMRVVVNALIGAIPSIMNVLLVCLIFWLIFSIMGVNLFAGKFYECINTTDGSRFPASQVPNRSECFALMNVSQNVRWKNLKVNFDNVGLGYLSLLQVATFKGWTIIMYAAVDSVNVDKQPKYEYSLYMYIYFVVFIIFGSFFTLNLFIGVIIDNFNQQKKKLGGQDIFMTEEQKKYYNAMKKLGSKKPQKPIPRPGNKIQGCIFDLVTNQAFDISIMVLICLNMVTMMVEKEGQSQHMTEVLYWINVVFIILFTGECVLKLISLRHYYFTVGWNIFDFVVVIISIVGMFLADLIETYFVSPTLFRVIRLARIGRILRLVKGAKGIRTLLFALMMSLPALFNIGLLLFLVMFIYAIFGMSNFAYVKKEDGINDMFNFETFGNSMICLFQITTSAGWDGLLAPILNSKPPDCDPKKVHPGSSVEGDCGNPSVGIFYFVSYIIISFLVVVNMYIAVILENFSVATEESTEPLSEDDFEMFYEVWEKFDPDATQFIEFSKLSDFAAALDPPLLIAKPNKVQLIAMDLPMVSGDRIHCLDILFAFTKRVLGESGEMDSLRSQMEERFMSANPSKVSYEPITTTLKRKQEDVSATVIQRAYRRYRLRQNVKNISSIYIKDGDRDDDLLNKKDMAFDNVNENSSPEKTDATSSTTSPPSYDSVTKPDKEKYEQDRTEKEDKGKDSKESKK

hNav1.7 [2] = biological target: T1, hNav1.7; assay: Tritiated compound binding to membranes from cells heterologously expressing hNav1.7 and the β1 subunit (Nav1.7 LBA); conditions: competitive binding vs [3H]compound, membranes with hNav1.7 and β1 subunit; read-out: Nav1.7 LBA EVO IC50
Protocol: Example 93A. Tritiated Compound Binding to Membranes Isolated from Cells that Heterologously Express hNav1.7 and the β1 Subunit
Preparation of membranes containing recombinantly expressed sodium channels: Frozen recombinant cell pellets are thawed on ice and diluted to 4 times the cell pellet weight with ice cold 50 mM Tris HCl, pH 7.4 buffer. The cell suspensions are homogenized on ice using a motorized glass dounce homogeniser. Homogenates are further diluted 8.4 times with ice cold 50 mM Tris HCl, pH 7.4 buffer and then centrifuged at 200×g at 4° C. for 15 minutes. The supernatants are collected and centrifuged at 10000×g at 4° C. for 50 min. The pellets are then re-suspended in 100 mM NaCl, 20 mM Tris HCl, pH 7.4 buffer containing 1% v/v protease inhibitors (Calbiochem) and re-homogenized on ice. The homogenized membranes are then processed through a syringe equipped with a 26 gauge needle. Protein concentrations arer determined by Bradford Assay and the membranes are stored at −80° C.
Saturation experiments. A competitive NaV1.7 inhibitor having a methyl group is tritiated. Three tritiums are incorporated in place of methyl hydrogens to generate [^3H]compound. Binding of this radioligand is performed in 5 mL borosilicate glass test tubes at room temperature. Binding is initiated by adding membranes to increasing concentrations of [^3H]compound in 100 mM NaCl, 20 mM Tris HCl, pH 7.4 buffer containing 0.01% w/v bovine serum albumin (BSA) for 18 h. Non-specific binding is determined in the presence of 1 μM unlabeled compound. After 18 h, the reactants are filtered through GF/C glass fiber filters presoaked in 0.5% w/v polyethylene imine. Filters are washed with 15 mL ice cold 100 mM NaCl, 20 mM Tris HCl, pH7.4 buffer containing 0.25% BSA to separate bound from free ligand. [^3H]compound bound to filters is quantified by liquid scintillation counting.
Binding reactions are performed in 96-well polypropylene plates at room temperature for 18 h. In 360 μL, membranes are incubated with […] [^3H]compound and increasing concentrations of Test Compound. Non-specific binding is defined in the presence of 1 μM unlabeled compound. Reactions are transferred and filtered through 96-well glass fiber/C filter plates presoaked with 0.5% polyethylene imine. The filtered reactions are washed 5 times with 200 μL ice cold buffer containing 0.25% BSA. Bound radioactivity is determined by liquid scintillation counting.
Data Analysis: For saturation experiments, non-specific binding is subtracted from total binding to provide specific binding and these values are recalculated in terms of pmol ligand bound per mg protein. Saturation curves are constructed and dissociation constants are calculated using the single site ligand binding model: Beq=(Bmax*X)/(X+Kd), where Beq is the amount of ligand bound at equilibrium, Bmax is the maximum receptor density, Kd is the dissociation constant for the ligand, and X is the free ligand concentration. For competition studies percent inhibition is determined and IC50 values are calculated using a 4 parameter logistic model (% inhibition=(A+((B−A)/(1+((x/C)^D)))) using XLfit, where A and B are the maximal and minimum inhibition respectively, C is the IC50 concentration and D is the (Hill) slope.
Example 93B. Tritiated Compound Binding to Membranes Isolated from Cells that Heterologous Express hNav1.7 and the β1 Subunit
Following the procedure described in Example 93A, and making modifications as required to: centrifuge supernatants at 100000×g instead of 10000×g; re-suspend pellets in a buffer containing 0.01% BSA in addition to 100 mM NaCl, 20 mM Tris HCl, pH 7.4 buffer, and 1% v/v proteasome inhibitors; and storing membranes at −80° C. in single use aliquots instead of pooled. […]
Target sequence in this assay (Q15858 whole entry, looked up): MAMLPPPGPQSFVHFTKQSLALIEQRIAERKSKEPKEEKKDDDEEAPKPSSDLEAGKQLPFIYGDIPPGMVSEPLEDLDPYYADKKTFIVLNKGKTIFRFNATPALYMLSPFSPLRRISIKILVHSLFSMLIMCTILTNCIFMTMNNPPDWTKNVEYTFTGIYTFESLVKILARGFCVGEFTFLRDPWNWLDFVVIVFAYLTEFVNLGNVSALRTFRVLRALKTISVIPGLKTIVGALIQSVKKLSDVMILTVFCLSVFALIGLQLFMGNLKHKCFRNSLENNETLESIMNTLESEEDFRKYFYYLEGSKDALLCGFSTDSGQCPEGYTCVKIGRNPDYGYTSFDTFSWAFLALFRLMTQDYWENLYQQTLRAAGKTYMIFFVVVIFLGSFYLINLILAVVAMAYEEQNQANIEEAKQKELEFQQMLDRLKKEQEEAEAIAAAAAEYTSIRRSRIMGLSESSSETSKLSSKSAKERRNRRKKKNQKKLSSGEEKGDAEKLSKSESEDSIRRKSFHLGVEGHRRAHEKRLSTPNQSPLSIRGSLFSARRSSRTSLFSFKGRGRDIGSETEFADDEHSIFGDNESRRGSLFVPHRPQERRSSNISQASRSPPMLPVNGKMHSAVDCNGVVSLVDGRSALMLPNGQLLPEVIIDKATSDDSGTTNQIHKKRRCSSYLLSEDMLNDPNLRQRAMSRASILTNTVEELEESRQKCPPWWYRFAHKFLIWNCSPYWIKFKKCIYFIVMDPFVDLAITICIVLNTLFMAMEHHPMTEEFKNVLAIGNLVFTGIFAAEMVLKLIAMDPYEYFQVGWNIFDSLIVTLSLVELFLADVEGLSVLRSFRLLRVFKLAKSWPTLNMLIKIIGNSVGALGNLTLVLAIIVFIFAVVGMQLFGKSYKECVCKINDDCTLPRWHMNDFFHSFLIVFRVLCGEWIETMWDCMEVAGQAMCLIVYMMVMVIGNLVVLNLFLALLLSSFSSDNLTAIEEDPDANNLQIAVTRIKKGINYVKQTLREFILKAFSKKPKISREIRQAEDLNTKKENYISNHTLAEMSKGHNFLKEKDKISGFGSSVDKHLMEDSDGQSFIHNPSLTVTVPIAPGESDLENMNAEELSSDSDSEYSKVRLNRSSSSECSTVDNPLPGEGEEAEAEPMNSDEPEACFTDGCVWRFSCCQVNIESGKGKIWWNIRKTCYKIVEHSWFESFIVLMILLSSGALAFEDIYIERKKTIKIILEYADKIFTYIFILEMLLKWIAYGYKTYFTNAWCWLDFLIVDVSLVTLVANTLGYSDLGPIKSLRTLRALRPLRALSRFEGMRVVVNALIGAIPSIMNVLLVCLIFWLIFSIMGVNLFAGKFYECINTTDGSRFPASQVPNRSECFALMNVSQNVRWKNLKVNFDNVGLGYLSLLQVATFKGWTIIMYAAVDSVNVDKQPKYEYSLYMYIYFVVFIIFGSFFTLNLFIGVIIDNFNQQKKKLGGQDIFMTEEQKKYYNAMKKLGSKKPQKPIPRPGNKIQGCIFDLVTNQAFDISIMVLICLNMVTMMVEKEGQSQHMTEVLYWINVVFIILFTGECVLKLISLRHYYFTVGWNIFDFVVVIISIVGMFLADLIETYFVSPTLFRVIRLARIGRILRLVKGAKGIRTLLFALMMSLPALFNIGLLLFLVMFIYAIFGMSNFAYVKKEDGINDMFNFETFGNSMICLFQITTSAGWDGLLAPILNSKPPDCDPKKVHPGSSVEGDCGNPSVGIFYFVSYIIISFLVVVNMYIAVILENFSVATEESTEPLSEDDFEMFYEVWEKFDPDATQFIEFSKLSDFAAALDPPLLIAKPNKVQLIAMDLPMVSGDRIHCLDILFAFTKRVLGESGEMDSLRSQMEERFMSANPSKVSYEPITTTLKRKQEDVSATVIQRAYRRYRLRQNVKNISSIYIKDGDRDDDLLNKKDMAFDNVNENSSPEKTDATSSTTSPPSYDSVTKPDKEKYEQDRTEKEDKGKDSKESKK
Target sequence in this assay (Q07699 whole entry partner, looked up): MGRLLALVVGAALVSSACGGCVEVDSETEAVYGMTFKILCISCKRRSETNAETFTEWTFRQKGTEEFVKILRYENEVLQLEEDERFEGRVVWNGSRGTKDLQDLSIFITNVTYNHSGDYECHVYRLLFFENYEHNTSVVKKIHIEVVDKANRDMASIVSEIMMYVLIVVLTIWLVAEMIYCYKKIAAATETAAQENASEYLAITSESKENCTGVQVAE

| IC50 (hNav1.7 [1]) | IC50 (hNav1.7 [2]) | SMILES |
| --- | --- | --- |
| 0.462 nM | 2.78 nM | CC(C)[C@H](N)C(=O)N(C)[C@H]1C[C@@H](c2cccc(C(F)(F)F)c2)CC[C@@H]1Nc1cc(F)c(S(=O)(=O)Nc2ccncn2)cc1Cl [Example 31, (S)-2-amino-N-((1S,2S,5S)-2-((2-chloro-5-fluoro-4-(N-(pyrimidin-4-yl)sulfamoyl)-phenyl)amino)-5-(3-(trifluoromethyl)phenyl)cyclohexyl)-N,3-dimethylbutanamide formate] |
| 1.01 nM | 0.686 nM | CN(C)[C@H]1C[C@@H](c2cccc(C(F)(F)F)c2)CC[C@@H]1N1CCOc2cc(S(=O)(=O)Nc3ccncn3)c(F)cc21 [Example 2, 4-((1S,2S,4S)-2-(Dimethylamino)-4-(3-(trifluoromethyl)phenyl)cyclohexyl)-6-fluoro-N-(pyrimidin-4-yl)-3,4-dihydro-2H-benzo[b][1,4]oxazine-7-sulfonamide formate] |
| 1.92 nM | 3.95 nM | CN(C)[C@H]1C[C@@](O)(c2cccc(C(F)(F)F)c2)CC[C@@H]1Nc1cc(F)c(S(=O)(=O)Nc2ccncn2)cc1Cl [Example 35, 5-chloro-4-(((1S,2S,4R)-2-(dimethylamino)-4-hydroxy-4-(3-(trifluoromethyl)phenyl)-cyclohexyl)amino)-2-fluoro-N-(pyrimidin-4-yl)benzenesulfonamide formate] |
| 9.11 nM | 45.8 nM | CN(C)[C@H]1C[C@@H](c2cccc(C3COC3)c2)CC[C@@H]1Nc1cc(F)c(S(=O)(=O)Nc2ccncn2)cc1Cl [Example 44, 5-chloro-4-(((1S,2S,4S)-2-(dimethylamino)-4-(3-(oxetan-3-yl)phenyl)cyclohexyl)amino)-2-fluoro-N-(pyrimidin-4-yl)benzenesulfonamide] |
| 9440 nM | ≥ 2000 nM | CN(C)[C@@H]1C[C@@](O)(c2cccc(C(F)(F)F)c2)CC[C@H]1Nc1cc(F)c(S(=O)(=O)Nc2ccncn2)cc1Cl (single isomer, unassigned) [Example 38, formate] |
| 0.383 nM | 0.583 nM | CN(C)[C@H]1C[C@@H](c2cc(Cl)cc(C(F)(F)F)c2)CC[C@@H]1Nc1cc(F)c(S(=O)(=O)Nc2ccncn2)cc1Cl [Example 24, 5-chloro-4-(((1S,2S,4S)-4-(3-chloro-5-(trifluoromethyl)phenyl)-2-(dimethylamino)cyclohexyl)-amino)-2-fluoro-N-(pyrimidin-4-yl)benzenesulfonamide] |
| 211 nM | 643 nM | CN(C)[C@H]1C[C@@H](c2ccccc2C(F)(F)F)CC[C@@H]1Nc1cc(F)c(S(=O)(=O)Nc2ccncn2)cc1Cl (single isomer, unassigned) [Example 77] |
| 0.173 nM | 0.474 nM | CNCCN(C)[C@H]1C[C@@H](c2cccc(C(F)(F)F)c2)CC[C@@H]1Oc1cc(F)c(S(=O)(=O)Nc2ccncn2)cc1Cl [Example 69, 5-chloro-2-fluoro-4-(((1S,2S,4S)-2-(methyl(2-(methylamino)ethyl)amino)-4-(3-(trifluoromethyl)phenyl)cyclohexyl)oxy)-N-(pyrimidin-4-yl)benzenesulfonamide formate] |
| 7.04 nM | 169 nM | CN(C)[C@H]1CN(c2cc(C(F)(F)F)ccn2)CC[C@@H]1Nc1cc(F)c(S(=O)(=O)Nc2ccncn2)cc1Cl [Example 71, 5-Chloro-4-(((3S,4S)-3-(dimethylamino)-1-(4-(trifluoromethyl)pyridin-2-yl)piperidin-4-yl)amino)-2-fluoro-N-(pyrimidin-4-yl)benzenesulfonamide formate] |
| 23.1 nM | 274 nM | CN(C)[C@H]1CN(c2cc(C(F)(F)F)ccn2)CC[C@@H]1Nc1ccc(S(=O)(=O)Nc2ccncn2)c(F)c1 [Example 72, 4-(((3S,4S)-3-(Dimethylamino)-1-(4-(trifluoromethyl)pyridin-2-yl)piperidin-4-yl)amino)-2-fluoro-N-(pyrimidin-4-yl)benzenesulfonamide formate] |
| 3.34 nM | 37.7 nM | CN(C)[C@H]1C[C@@H](c2cccc(C(F)(F)F)c2)CC[C@@H]1Oc1cc(F)c(S(=O)(=O)Nc2ccncn2)cc1F [Example 48, 4-(((1S,2S,4S)-2-(dimethylamino)-4-(3-(trifluoromethyl)phenyl)cyclohexyl)oxy)-2,5-difluoro-N-(pyrimidin-4-yl)benzenesulfonamide formate] |
| 0.819 nM | 3.28 nM | CN(C)[C@H]1C[C@@H](c2cc(C(F)(F)F)ccc2Cl)CC[C@@H]1Oc1cc(F)c(S(=O)(=O)Nc2ccncn2)cc1Cl [Example 86, 5-chloro-4-(((1S,2S,4S)-4-(2-chloro-5-(trifluoromethyl)phenyl)-2-(dimethylamino)-cyclohexyl)oxy)-2-fluoro-N-(pyrimidin-4-yl)benzenesulfonamide] |
| 0.673 nM | 1.36 nM | CN(C)[C@H]1C[C@@H](c2cccc(OC(F)(F)F)c2)CC[C@@H]1Nc1cc(F)c(S(=O)(=O)Nc2ccncn2)cc1F [Example 19, 4-(((1S,2S,4S)-2-(dimethylamino)-4-(3-(trifluoromethoxy)phenyl)cyclohexyl)amino)-2,5-difluoro-N-(pyrimidin-4-yl)benzenesulfonamide] |
| 0.61 nM | 0.886 nM | CN(C)[C@H]1C[C@@H](c2cc(F)cc(C(F)(F)F)c2)CC[C@@H]1Nc1cc(F)c(S(=O)(=O)Nc2ccncn2)cc1Cl [Example 15, 5-Chloro-4-[[(1S,2S,4S)-2-(dimethylamino)-4-[3-fluoro-5-(trifluoromethyl)phenyl]-cyclohexyl]amino]-2-fluoro-N-pyrimidin-4-yl-benzenesulfonamide formic acid] |
| 1.33 nM | 1.22 nM | CN(C)[C@H]1C[C@@H](c2cccc(CC(F)(F)F)c2)CC[C@@H]1Nc1cc(F)c(S(=O)(=O)Nc2ccncn2)cc1Cl [Example 27, 5-chloro-4-(((1S,2S,4S)-2-(dimethylamino)-4-(3-(2,2,2-trifluoroethyl)phenyl)cyclohexyl)-amino)-2-fluoro-N-(pyrimidin-4-yl)benzenesulfonamide] |
